Two molecules from patent US20220079962A1, “NUTRITIONAL COMPOSITION COMPRISING 2'FUCOSYLLACTOSE AND DIETARY BUTYRATE” (N.V. Nutricia, priority 2019, published 2022) can be followed below.

The test system of one test is Caco-2 cell monolayer. Kind of test: DON-induced impairment of Caco-2 cell monolayer integrity (TEER, lucifer yellow flux). Type of test: cell-based, human. How it is done: Caco-2 cells were used according to established methods. In brief: cells were cultured in Dulbecco's modified Eagle medium (DMEM) and seeded at a density of 0.3×10^5 cells into 0.3 cm^2 high pore density (0.4 μm) inserts with a polyethylene terephthalate membrane (BD Biosciences, Franklin Lakes, N.J., USA) placed in a 24-well plate. The Caco-2 cells were maintained in a humidified atmosphere of 95 air and 5% CO2 at 37° C.
Caco-2 cell monolayers were thus grown in a transwell system, which is a model for intestinal barrier function. The monolayers were pretreated for 24 h with different GLs, including beta3′-GL, alpha3′-GL, beta4′-GL and beta6′-GL in a concentration of 0.75 wt. % of the GL, before being exposed to the fungal toxin deoxynivalenol (DON), which is a trigger and model compound to impair intestinal barrier. DON was diluted to a final concentration of 4.2 μM in complete cell medium and added to the apical side as well as to the basolateral side of the transwell inserts. […] Incubation with DON was 24 h.
Measurements of the transepithelial electrical resistance (TEER) and lucifer yellow (LY) permeability were conducted to investigate barrier integrity. For TEER measurements a Millicel-ERS voltohmmeter connected to a pair of chopsticks electrodes was used to measure the TEER values. Results are expressed as a percentage of the initial value. For paracellular tracer flux assay the membrane impermeable lucifer yellow (LY) (Sigma, St Louis, Mo., USA) was added in a concentration of 16 μg/ml to the apical compartment in the transwell plate for 4 h, and the paracellular flux was determined by measuring the fluorescence intensity in the basolateral compartment with a spectrophotofluorimeter (FLUOstar Optima, BMG Labtech, Offenburg, Germany) set at excitation and emission wavelengths of 410 and 520 nm, respectively. Release of interleukin-8 (IL-8 or CXCL8), which is a typical marker for inflammation, was quantified in the medium of the apical side and the basolateral side of the Caco-2 transwell inserts in response to the treatments. CXCL8 concentrations were measured by using the human IL-8 ELISA assay (BD Biosciences, Pharmingem, San Diego, Calif., USA) according to manufacturer's instructions. For more details on materials and methods see Akbari et al, 2016, Eur J Nutr. 56(5):1919-1930.

In test [1] the test system is human peripheral blood mononuclear cells (PBMC). In words: PBMC cytokine levels, unstimulated condition. Type of test: cell-based. The following applies: for Relative CCL 20, observed: 0.1 w/v % 3′-GL. From the text:
Isolation of PBMC from healthy donors: Human peripheral blood mononuclear cells (PBMC) from healthy donors were isolated from buffy coats (Sanquin, Amsterdam, the Netherlands). PBMC were obtained by centrifugation using Leucosep tubes (Greiner Bio-One). […] After lysis, the PBMC were resuspended in freezing medium (70% RPMI 1640 medium (Gibco, Thermo Fisher Technologies) supplemented with 10% heat-inactivated FCS and 100 U/ml penicillin-streptomycin, 20% heat-inactivated FCS and 10% DMSO (Sigma)) and cryopreserved. PBMC activation model: PBMC (0.2.10^6 cell/well) were cultured in 96-well flat bottom plates (Corning). For 24 hours the cells were pre-incubated with 2'-FL (Jennewein), 3'-GL (0-0.3% w/v; […] Sigma Aldrich) and combinations thereof. Subsequently, the cells were CD3/CD28-activated (Pelicluster CD3 and Pelicluster CD28, Sanquin) for an additional 24 hours. After incubation, IFNγ was measured by ELISA in the supernatants (see below). […] Roche) and/or 10% Triton (5 μl; negative control). […] Cytokine production of PBMC: PBMC were incubated with indicated reagents. After incubation, the supernatants were collected and IL2, IL6, IL10, IL13, IL21, TNFα, IFNγ, MIF, CCL1, CCL13, CCL17, CCL20, CCL22 and CXCL8-11 levels were measured by conducting a validated multiplex immunoassay based on Luminex technology (xMAP, Luminex Austin Tex. USA). Acquisition was conducted with the Biorad […] (Biorad laboratories, Hercules USA) in combination with xPONENT software version 4.2 (Luminex). Data was analyzed by 5-parametric curve fitting using Bio-Plex Manager software, version 6.1.1 (Biorad). After PBMC stimulation, cell culture supernatants were collected, after which cytokine responses were measured in order to test immune responsiveness of the cells. The levels of cytokines measured in stimulated conditions were corrected for the (low) levels of the cytokines measured in non-stimulated conditions. In addition, since each donor is reacting in its own efficiency onto the T cell stimulus, we calculated the individual index of cytokine response by dividing the intervention induced response by the basal stimulated response.

For test [2] the test system is unchanged. Kind of test: PBMC cell activity (WST-1). The following applies: after 24 h. Type of test: cell-based. How it is done: PBMC activation model: PBMC (0.2.10^6 cell/well) were cultured in 96-well flat bottom plates (Corning). For 24 hours the cells were pre-incubated with 2′-FL (Jennewein), 3′-GL (0-0.3% w/v; […] Sigma Aldrich) and combinations thereof. Subsequently, the cells were CD3/CD28-activated (Pelicluster CD3 and Pelicluster CD28, Sanquin) for an additional 24 hours. After incubation, IFNγ was measured by ELISA in the supernatants (see below). […] Roche) and/or 10% Triton (5 μl; negative control).

In a further test the test system is Klebsiella pneumonia K2. In words: Fecal slurry fermentation spiked with pathogens, Klebsiella growth. To be noted: inoculum of baby 2. How it is done: In addition the test legs were supplemented with Clostridium difficile C153 (difficile agar), Salmonella enteriditis S29 (XLD agar), Cronobacter sakasakii E71 (chromogenic agar) or Klebsiella pneumonia K2 (Simons citrate inositol agar). For every NDO and for the control also a pathogen free culture was prepared.
The experiment was started, and pH setpoint was either 5.5 (facial inoculum from infant 1, vaginally born, breast fed) or pH 6.0 (Inoculum from infant 2, vaginally born, breast fed) with continuous pH regulation, and temperature 37° C., humidity 85%, OD control. At 4, 8 and 24 hours a sample is taken for CFU determination on TOS-propionate MUP agar (total Bifidobacteria), XLD agar for Salmonella enteriditis S29, and Simons citrate inositol agar for Klebsiella pneumonia K2 and for SCFA, D- and L Lactate and ammonia analysis. Fecal pellet was used for 16s DNA sequencing. For both inocula the extent of fermentation, as measured by NaOH consumption, i.e. acid production, was highest with the combination of 3′-GU2′-FL, when compared to 3′-GL or 2′-FL alone. The rate of initial acidification was high for 3′-GL and for 3′-GL/2′-FL. […] As the amount of carbohydrates that can be fermented is the same in the reaction vessels, the higher total acidification with the combination is indicative for an unexpected, synergistic effect of the combination of 2′-FL and 3′-GL. […]

[3] abbreviates: DON 4.2 μM with 2′-FL 1 mg/ml, mean.
Setting [4] is: unstimulated, relative to blanc (=1), 0.2% w/v 2′-FL, 0.2 mM butyrate, mean.

On to `C[C@@H]1O[C@@H](O[C@H]2[C@H](O[C@H]3[C@H](O)[C@@H](O)C(O)O[C@@H]3CO)O[C@H](CO)[C@H](O)[C@@H]2O)[C@@H](O)[C@H](O)[C@@H]1O` (stereo partly drawn) [2′-FL, α-L-Fuc-(1→2)-β-D-Gal-(1→4)-D-Glc], for which the “effect on DON induced reduction in TEER and increase in LYF” value in the test on Caco-2 cell monolayer (2′-FL 1 mg/ml) was “statistically significantly prevent the DON induced reduction in TEER and increase in LYF”. In the test with Caco-2 cell monolayer (setting [3]), the Lucifer yellow flux is on record as 446.4 ng/ml (cm^2 × h) and the “TEER (% of initial value)” value is on record as 42.79 % of initial value. Moreover, the “IL10 level compared to blanc control” value in test [1] (0.2% 2′-FL, 0.2 mM butyrate) was “significantly (p<0.05) increased level of IL10”. Moreover, the “CCL20 level compared to blanc control” value in test [1] (unstimulated) was “increased level of CCL20”. For the same molecule, the “Relative IL10 level, observed” value in test [1] (unstimulated, relative to blanc (=1), 0.2% w/v 2′-FL, 0.2 mM butyrate, mean, 10 donors) is 3.361. In addition, the “Relative CCL 20, observed” value in test [1] (setting [4]) is listed as 2.586. The “Immune cell activity as measured by WST” value in test [2] is given as “significantly increased”.
As to “Gal (beta 1-3)-Gal (beta 1-4)-Glc [3′-GL]”, the “effect on DON-induced loss of epithelial barrier integrity (TEER, LY flux)” value in the test with Caco-2 cell monolayer (24 h pretreatment with 0.75 wt. % GL, then DON 4.2 μM 24 h, FIGS. 1A-D) was “prevented the DON-induced loss of epithelial barrier integrity”. For the same molecule, the “CCL20 level compared to blanc control” value in test [1] (unstimulated) is given as “did not have a statistically significant effect”. The “Relative CCL 20, observed” value in test [1] (setting [4]) came to 1.164. Also, the “Immune cell activity as measured by WST” value in test [2] is on record as “decrease in activation”. Further, the “Klebsiella growth” value in the test on Klebsiella pneumonia K2 was “most inhibited”.
